{"source": "patent US6429191B1", "about": "“Treatment of hearing impairments” (Genentech, Inc., priority 1996, dated 2002)", "key": {"[1]": {"molecular_target": "trkC receptor (Homo sapiens, UniProt Q16288)", "sequence (Q16288 32-839)": "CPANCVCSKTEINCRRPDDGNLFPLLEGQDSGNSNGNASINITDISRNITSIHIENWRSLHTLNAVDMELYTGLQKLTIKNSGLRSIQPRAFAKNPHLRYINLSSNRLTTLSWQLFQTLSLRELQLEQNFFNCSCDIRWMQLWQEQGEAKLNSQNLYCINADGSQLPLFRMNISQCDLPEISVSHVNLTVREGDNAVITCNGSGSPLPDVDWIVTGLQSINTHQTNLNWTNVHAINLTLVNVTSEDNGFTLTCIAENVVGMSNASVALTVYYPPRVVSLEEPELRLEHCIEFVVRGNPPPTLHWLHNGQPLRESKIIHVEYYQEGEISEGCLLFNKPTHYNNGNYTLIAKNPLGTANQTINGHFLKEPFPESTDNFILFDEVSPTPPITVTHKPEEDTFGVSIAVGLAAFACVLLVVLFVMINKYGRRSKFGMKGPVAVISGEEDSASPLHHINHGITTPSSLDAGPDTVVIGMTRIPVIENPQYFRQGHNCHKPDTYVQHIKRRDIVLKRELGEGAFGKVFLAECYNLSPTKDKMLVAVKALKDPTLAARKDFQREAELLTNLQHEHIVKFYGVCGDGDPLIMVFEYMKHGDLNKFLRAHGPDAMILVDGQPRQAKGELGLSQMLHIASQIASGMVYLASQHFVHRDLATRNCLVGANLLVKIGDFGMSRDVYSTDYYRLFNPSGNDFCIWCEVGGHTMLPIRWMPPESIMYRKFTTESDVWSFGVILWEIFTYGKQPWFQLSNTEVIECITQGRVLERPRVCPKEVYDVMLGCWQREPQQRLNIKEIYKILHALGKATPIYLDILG", "details": "compared with NT-3; cited from earlier work"}, "[2]": {"system": "spiral ganglion neurons (SGNs)", "assay": "Survival of dissociated spiral ganglion neurons in serum-free culture", "type": "cell-based, rat", "details": "for survival-promoting effect on SGNs: P5 rat SGNs, 2 days, serum-free medium, neurotrophins 0.1-50 ng/ml", "procedure": "FIG. 1 is a histogram depicting the effects of NT-4/5 on SGN survival. SGNs were prepared from P5 rats, plated and kept for 2 days in serum-free medium in the absence or presence of NT-4/5 at different concentrations. Viable SGNs were identified by labeling with a neurofilament monoclonal antibody (N52), viewed under a Zeiss Axiophot microscope, and counted using a grid ocular reticule covering an area of […]. For each culture, about 10 randomly selected fields were counted. Data were collected from 3 to 5 cultures and normalized as a percentage of the number of viable neurons in the control cultures in each of the experiments. The error bars represent SEM.\nFIG. 2 is a histogram depicting the effects of different neurotrophins on SGN survival. SGNs were prepared from P5 rats and maintained for 2 days in serum-free medium without or with different neurotrophins at different concentrations. Quantitation of viable SGNs was made in the same way as in FIG. 1 and the error bars are SEM. […] Difference between NT-3 and NT-4/5 or BDNF was very significant at all doses (P<0.001). No statistical difference was found between NT-4/5 and BDNF except the dose of 0.1 ng/ml (P<0.01).\nIdentical results (not shown) were also obtained with a different neuronal marker, a monoclonal antibody 3A10 (Furley et al., 1990). SGNs were dissociated from postnatal day 5 (P5) rat cochleae and plated in defined serum-free medium. […] The enzyme was inactivated with a mixture of 0.005% soybean trypsin inhibitor (Sigma) and 0.005% DNase (Worthington) before trituration with 0.05% DNase in Eagle's Basal Medium (“BME”). The dissociated cells were preplated on a 35 mm untreated tissue culture dish for 25 min to enrich the neuronal population. Under these experimental procedures, about 10% of the cell population were spiral ganglion neurons (“SGNs”) as determined by immunocytochemistry with a monoclonal antibody (N52; Boehringer) against neurofilaments (200 kd; Boehringer). […] Cells were plated at a density of 80,000/well. In control cultures about 75% of SGNs died after 2 days, presumably due to a lack of growth factors."}, "[3]": {"system": "hair cells in cochlear explants", "assay": "Protective effects in cochlear explant cultures co-treated with ototoxins, hair cell count", "type": "cell-based, rat", "details": "growth factor added together with ototoxin; data not shown", "procedure": "(§1) FIGS. 9A and 9B depict quantitation of protective effects of NT-4/5 on SGNs (FIG. 9A) and hair cells (FIG. 9B). […] The same experimental procedures were performed as in FIGS. 6A and 6B. The error bars are SEM and ** indicate that as compared to the cultures containing an ototoxin alone, p<0.001. “Con” indicates control culture.\n(§2) The protective effect of neurotrophins against ototoxicity was determined in the organotypic cultures of postnatal cochlear explants described in the Examples above. […] A human recombinant neurotrophin (Genentech, Inc.) or other growth factors, alone or in combination, was added to the culture at the same time the ototoxin was added.\n(§3) Two days after treatment with ototoxins or co-treatment with ototoxins and neurotrophins (or other growth factors), the cochlear explant cultures were fixed in 4% paraformaldehyde in 0.1 M phosphate buffer (pH 7.4) for 30 min, washed in PBS, and subjected to double histochemical staining of the cochlear explant cultures. After incubation with the monoclonal antibody N52 against neurofilament protein (200 kd) in 1% Triton X100 containing 3% normal goat serum (“NGS”) for 2 days at 4° C., the explants were incubated with a Texas red-conjugated goat anti-mouse secondary antibody (1:70; Cappel) at room temperature for 40 min. The preparations were then stained with FITC-conjugated phalloidin (0.5 μg/ml; Sigma) for 45 min, washed in PBS and mounted in Fluoromount-G (Southern Biotechnology Associates, Birmingham, Ala.) which contains an anti-fading agent."}, "[4]": {"system": "SGNs in cochlear explants", "assay": "Protective effects in cochlear explant cultures co-treated with ototoxins, SGN peripheral axon count", "type": "cell-based, rat", "details": "for protective effects on SGNs against ototoxins: growth factor added together with ototoxin, data not shown; for neuroprotection of SGNs against sodium salicylate and gentamicin: 20 ng/ml neurotrophin, sodium salicylate 5 mM or gentamicin 3 mM", "procedure": "as §1\nFIG. 10 depicts quantitation of neuroprotection of different neurotrophins against sodium salicylate (Sal) and gentamicin (Gent). […] Sodium salicylate (5 mM) or gentamicin (3 mM) was added either alone or in combination with one of the neurotrophins (20 ng/ml) to 2-day cultures and the cultures were kept for 2 more days. The same experimental procedures were performed as in FIGS. 6A and 6B. […] The error bars are SEM and ** indicate that as compared to the cultures containing an ototoxin alone, p<0.001.\nas §2, §3"}, "[5]": {"details": "cited from earlier work"}, "[6]": {"system": "SGNs in cochlear explants", "procedure": "(§4) Cochlear explants were prepared from P3 rats, embedded and cultured in 3-D collagen gels. Ototoxins were added at various concentrations to 2-day cultures for 2 more days. After the preparations were processed for double histochemistry with N52 and phalloidin, they were examined under Zeiss Axiophot epifluorescent microscope. For each culture, SGN peripheral axons and hair cells were counted from 3-4 randomly selected fields in the middle turn of each culture. Data were collected from 6 or more cultures for each of the experimental groups. Two-tailed, unpaired t-test was used for statistical analysis. […] The error bars are SEM and double asterisks (**) indicate significant differences between experimental and control cultures (p<0.001).\n(§5) An organotype cochlear explant culture that utilizes a 3-D collagen matrix cultures and maintains its normal, in vivo architecture. Cochleae were dissected from postnatal day 3 (P3) Wistar rats. After spiral ligament and stria vascularis tissues were removed, the remaining cochlear tissue containing the spiral ganglion and organ of Corti was cut into 3 pieces according to the basal, middle and apical turns. The explants were then embedded in a three-dimensional (“3-D”) collagen matrix of a droplet (20 μl) of freshly made collagen gel which was placed on the bottom of a 35 mm Nunc tissue culture dish, modified from what described previously (Gao et al., 1991) as follows. Rat tail collagen (type I, Collaborative Research) was mixed with 10× BME medium and 2% sodium carbonate in a ratio of 10:1:1 and placed on ice just before use. The collagen matrix containing the cochlear explants were incubated at 37° C. for 5-10 min until it gelled. The matrix was then cultured in defined serum-free medium using sufficient medium to cover the explants (2 ml of serum-free medium (BME plus serum-free supplement (Sigma 1-1884), 1% BSA, 2 mM glutamine, and 5 mg/ml glucose; containing no antibiotics). The culture medium was changed every other day thereafter.\n(§6) While the neurofilament antibody (Texas red-mediated) labeled the somata and peripheral axons of SGNs, the phalloidin-FITC conjugate stained the stereocillia bundles of hair cells. Three cultures per experimental paradigm were studied in each individual experiment. Three or more separate repetitions of the experiment were conducted to validate the ototoxic effect.\n(§7) As the density of the radial peripheral axons of SGNs appeared to be a reliable index of the number of surviving SGNs, the number of the peripheral axons of SGNs from a given length (100 μm) in the middle turn of the cochlea was counted for different experimental groups and plotted in FIG. 6A. Phalloidin-labeled hair cells were also counted in the same way (FIG. 6B).\n(§8) Quantitative analysis of the numbers of peripheral axons of SGNs and hair cells in the cochlear explants were performed. The N52 and phalloidin double-labeled cochlear explants were examined under a Zeiss Axiophot epifluorescent microscope. As the density of radial peripheral axons of SGNs reflects the number of surviving SGNs, the number of these axons was counted using a grid ocular reticule covering a distance of 100 μm in the middle turns only. The surviving hair cells were counted in a similar manner. […] For each culture, SGN peripheral axons and hair cells were counted from 3-4 randomly selected fields in the middle turn of each culture."}, "[7]": {"system": "hair cells in cochlear explants", "procedure": "as §4, §5, §6, §7, §8"}, "[8]": {"system": "spiral ganglion neurons (SGNs)", "assay": "Neurotrophin protection of dissociated SGNs against cisplatin neurotoxicity", "type": "cell-based, rat", "details": "for protection of SGNs compared with cultures containing cisplatin alone / protective effects against cisplatin neurotoxicity: 10 ng/ml neurotrophin; for protection of SGNs compared with cultures containing cisplatin alone: 4 μg/ml cisplatin; for protective effects against cisplatin neurotoxicity: cisplatin 1, 2 or 4 μg/ml", "from_the_text": "Quantitation of viable SGNs was done in the same way as in FIG. 1. The error bars stand for SEM. […] While no difference was found between cultures containing NT-4/5 and cultures containing BDNF, the difference between cultures containing NT-3 and cultures containing NT-4/5 or BDNF was statistically very significant (P<0.001)."}}, "note": "Like-named read-outs stand apart in the source and are kept apart here.", "data": [{"molecule": "R31A: NT-3 with mutation at position R31 to alanine", "values": [{"measurement": "trkC binding of NT-3 mutant", "setting": "[1]", "result": "increased trkC binding"}]}, {"molecule": "basic fibroblast growth factor [βFGF]", "values": [{"measurement": "survival-promoting effect on SGNs", "setting": "[2]", "result": "No survival-promoting effects"}, {"measurement": "protective effects on hair cells against ototoxins", "setting": "[3]", "result": "did not show detectable protective effects"}, {"measurement": "protective effects on SGNs against ototoxins", "setting": "[4]", "result": "did not show detectable protective effects"}]}, {"molecule": "transforming growth factor-β1 [TGF-β1]", "values": [{"measurement": "survival-promoting effect on SGNs", "setting": "[2]", "result": "No survival-promoting effects"}, {"measurement": "protective effects on hair cells against ototoxins", "setting": "[3]", "result": "did not show detectable protective effects"}, {"measurement": "protective effects on SGNs against ototoxins", "setting": "[4]", "result": "did not show detectable protective effects"}]}, {"molecule": "platelet-derived growth factor [PDGF]", "values": [{"measurement": "protective effects on hair cells against ototoxins", "setting": "[3]", "result": "did not show detectable protective effects"}, {"measurement": "protective effects on SGNs against ototoxins", "setting": "[4]", "result": "did not show detectable protective effects"}]}, {"molecule": "insulin-like growth factor-1 [IGF-1]", "values": [{"measurement": "protective effects on hair cells against ototoxins", "setting": "[3]", "result": "did not show detectable protective effects"}, {"measurement": "protective effects on SGNs against ototoxins", "setting": "[4]", "result": "did not show detectable protective effects"}]}, {"molecule": "[H]/N=C(/N)N[C@H]1[C@H](O)[C@@H](O)[C@H](O[C@@H]2O[C@@H](C)[C@](O)(C=O)[C@H]2O[C@@H]2O[C@@H](CO)[C@H](O)[C@@H](O)[C@@H]2NC)[C@@H](N/C(N)=N\\[H])[C@@H]1O", "note": "[streptomycin]", "values": [{"measurement": "patients developing measurable hearing loss", "setting": "[5]; 1 gram per day for greater than 1 week", "result": "4 to 15", "unit": "%"}, {"measurement": "incidence of vestibular impairment", "setting": "[5]; 1 gram per day", "result": 25, "unit": "%"}, {"measurement": "patients displaying some vestibular impairment", "setting": "[5]; 2 grams daily for 60 to 120 days", "result": "~75", "unit": "%"}]}, {"molecule": "gentamicin", "values": [{"measurement": "SGNs remaining intact", "setting": "[6]; 5 mM", "result": "approximately 40%"}, {"measurement": "damage to SGNs", "setting": "[6]; 0.01 to 0.5 mM", "result": "not significantly damaged"}, {"measurement": "damage to SGNs", "setting": "[6]; 1-5 mM", "result": "started to induce SGN degeneration"}, {"measurement": "doses at which damage to SGNs starts", "setting": "[6]; figure legend FIG. 7A", "result": "higher than 1 mM"}, {"measurement": "effect on hair cells", "setting": "[7]; 0.01 to 0.5 mM", "result": "a substantial number of hair cells in the cochlea were killed"}, {"measurement": "effect on hair cells", "setting": "[7]; 1-5 mM", "result": "eliminated virtually all hair cells"}]}, {"molecule": "neurotrophin-3 [NT-3]", "values": [{"measurement": "potency of protection against cisplatin compared with other neurotrophins", "setting": "[8]; 10 ng/ml", "result": "less potent compared to NT-4/5 or BDNF"}, {"measurement": "protection of SGNs compared with cultures containing cisplatin alone", "setting": "[8]", "result": "very significant protecting effects"}, {"measurement": "protective effects against cisplatin neurotoxicity", "setting": "[8]", "result": "significant protective effects"}, {"measurement": "survival-promoting effect on SGNs", "setting": "[2]", "result": "significant survival-promoting effect"}, {"measurement": "potency on SGN survival compared with other neurotrophins", "setting": "[2]; all doses (0.1-50 ng/ml)", "result": "less potent than NT-4/5 or BDNF"}, {"measurement": "neuroprotection of SGNs against sodium salicylate and gentamicin", "setting": "[4]", "result": "protective effects on SGNs"}]}, {"molecule": "O=C([O-])c1ccccc1O.[Na+]", "note": "[sodium salicylate]", "values": [{"measurement": "effect on SGNs and their peripheral axons", "setting": "[6]; 5 mM, added to 2-day cultures for 2 more days", "result": "massive death of SGNs and degeneration of their peripheral axons"}, {"measurement": "dosage which starts to induce significant damage to SGNs", "setting": "[6]; cochlear explant cultures", "result": 3, "unit": "mM"}, {"measurement": "SGN degeneration, dose dependence", "setting": "[6]; various concentrations", "result": "dose dependent"}, {"measurement": "effect on hair cells", "setting": "[7]; 5 mM", "result": "all hair cells remained intact"}, {"measurement": "hair cell loss", "setting": "[7]; 10 mM", "result": "no significant hair cell loss"}]}, {"molecule": "transforming growth factor-α [TGF-α]", "values": [{"measurement": "protective effects on hair cells against ototoxins", "setting": "[3]", "result": "did not show detectable protective effects"}, {"measurement": "protective effects on SGNs against ototoxins", "setting": "[4]", "result": "did not show detectable protective effects"}]}, {"molecule": "epidermal growth factor [EGF, growth factor (Collaborative Research)]", "values": [{"measurement": "survival-promoting effect on SGNs", "setting": "[2]", "result": "No survival-promoting effects"}, {"measurement": "protective effects on hair cells against ototoxins", "setting": "[3]", "result": "did not show detectable protective effects"}, {"measurement": "protective effects on SGNs against ototoxins", "setting": "[4]", "result": "did not show detectable protective effects"}]}, {"molecule": "brain-derived neurotrophic factor [BDNF]", "values": [{"measurement": "protection of SGNs compared with cultures containing cisplatin alone", "setting": "[8]", "result": "very significant protecting effects"}, {"measurement": "protective effects against cisplatin neurotoxicity", "setting": "[8]", "result": "Equivalent protective effects"}, {"measurement": "survival-promoting effect on SGNs", "setting": "[2]", "result": "very significant survival-promoting effects"}, {"measurement": "potency on SGN survival compared with other neurotrophins", "setting": "[2]; concentrations from 1-50 ng/ml", "result": "equal in potency to NT-4/5"}, {"measurement": "neuroprotection of SGNs against sodium salicylate and gentamicin", "setting": "[4]", "result": "protective effects on SGNs"}]}]}
